Assays:
Pdk1/Akt/Foxo1 [1] = assay: Western blot of Pdk1/Akt/Foxo1 signaling in livers of Lepr^db/db mice; type: in vivo, mouse; settings: 25 μg selenium/kg ip daily, 52 days (FIG. 12)
Method: Male Lepr^db/db mice (C57BL/6J strain, purchased from The Jackson Laboratory) at postnatal day 38 were intraperitoneally injected daily with physiological saline ([…]) containing 0.2% DMSO, Compound #43 (25 μg selenium or sulfur equivalent of each compound per kilogram body weight, diluted in sterile physiological saline) for 52 days. After the treatment, livers were collected and stored at −80° C.
Frozen liver tissues were minced in sterile ice-old PBS containing complete proteinase and phosphatase inhibitors (Thermo-Fisher Scientific, Waltham, Mass.) and subjected to homogenization using a tissue homogenizer (Thermo-Fisher Scientific, Waltham, Mass.). These tissue homogenates were diluted in Themo-Fisher's premade RIPA buffer (1 part homogenate/2 part of RIPA buffer) containing complete proteinase/phosphatase inhibitors to extract the proteins. Proteins in the homogenates were extracted in RIPA buffer at 4° C. overnight. These overnight-extracted protein lysates were centrifuged at 12000×g for 30 min at 4° C., and the protein levels in the supernatant of these tissue lysates were determined using the Pierce Micro-BCA protein assay kit (Thermo Scientific-Piece Biotechnology, Rockford, Ill.) according to the manufacturer's protocol.
(§1) One hundred micrograms of liver tissue proteins or five micrograms of total proteins from control- and compound(s)-treated HepG2 or AML-12 cells were subjected to SDS-PAGE gel separation and then transferred to PVDF membranes, as described previously (Reddy et al. 2008 Science). Membranes were blocked in a phosphate-buffered saline (PBS) containing 5% (w/v) of bovine serum albumin (Sigma, St. Louis, Mo.) and incubated with specific primary antibodies followed by the incubation with HRP-conjugated anti-mouse or anti-rabbit secondary antibodies (1:5000 dilution, Cell Signaling Inc.). All primary antibodies except Gapdh (Li-COR, Lincoln, Nebr.) were purchased from Cell Signaling Inc. Positive signals on the membrane blots were detected using the Amersham's enhanced chemiluminescence Western Blotting Prime Detection reagents (GE Healthcare Lifescience, Pittsburgh, Pa.). Images of these luminescence signals on the membrane blots were captured using the LI-COR Odyssey Fc Image system (Lincoln, Nebr.). The same membrane blot was stripped and re-blotted with another antibody as described in the GE WB ECL-prime-detection protocol (GE healthcare Lifescience, Pittsburgh, Pa.). Protein band densities in the Western blots were determined using the NIH ImageJ software and then normalized by Gapdh or Actb/ACTB level in each sample. Data are presented as mean±SEM of three samples per each group.

Pdk1/Akt/Foxo1 [2] = assay: Western blot of Pdk1/Akt/Foxo1 in AML-12 cells under simulated diabetic conditions (8-CPT/Dex); type: cell-based, mouse; settings: for pFoxo1 levels / total Foxo1 protein levels: 300 ppb Compound #43 or 10 nM insulin, 6 hr
Method: AML-12 cells were used to investigate whether Compound #43 can regulate Pdk1/Akt/Foxo1 signaling molecules in the liver cells following induction with diabetic stimuli. Amplified AML-12 cells were seeded on 6-well (1×10^6 cells/well) plates and cultured in 10% FBS but ITS/Dex-free DMEM/F12 media for 24 hr. Then these cells were washed twice with PBS to remove residual sera, and serum-starved in plain DMEM/F12 media overnight. These serum-starved AML12 cells were treated with the diabetic stimuli 8-CPT (0.1 mM) and Dex (0.5 μM) in combination, without (Control group) or with 10 nM insulin or Compound #43 (300 ppb) in serum-free plain DMEM/F12 media for 60 minutes, 90 minutes, and 6 hr, respectively.
After the above described treatments, cultured HepG2 and AML-12 cells were rinsed twice with ice-cold PBS and lysed in ice-cold RIPA buffer containing complete proteinase and phosphatase inhibitors (Thermo-Fisher Scientific, Waltham, Mass.) on ice for 30 min. Cell lysates were collected using a cell scraper and transfer pipette, and then centrifuged at 12000×g for 30 min at 4° C. to remove the DNA pellet and obtain the protein extract. Protein levels in the supernatant of these cell lysates were determined using the Pierce Micro-BCA protein assay kit (Thermo Scientific-Piece Biotechnology, Rockford, Ill.) according to the manufacturer's protocol.
as §1

H4IIE cells = assay: Cell viability (CellTiter96 AQueous One) in H4IIE cells; type: cell-based, rat; settings: tested doses
Method: After the above treatments, 50 μl of culture media were collected, and subjected to glucose analysis using Molecular Probes Amplex Red glucose assay kit (Cat #A22189) according to the manufacturer's protocol. Cell numbers or viability in the culture plate after the above compound treatments were determined using Promega's CellTiter96® AQueous One Solution Cell Proliferation Assay kits, according to the manufacturer's protocol and instructions. In brief, after removing 50 μl of culture media for glucose assay, cells were incubated with AQueous One solution (25 μl stock solution and 50 μl prewarmed PBS/per well) at 37° C. for 1 hour, and the absorbance of OD490 nm in each sample was determined by the Bio-Tek microplate reader. Cell viability in culture wells were determined by the subtraction of OD490 nm in cultured cells with the OD490 nm in plain culture media (without seeding of cells). Glucose production in the culture cells were obtained by normalizing the glucose concentration in culture media by cell viability in each well. At least 3 samples per each treatment were examined for the above analysis. Data are presented as Mean±SEM of those samples. Experiments were repeated at least twice.

Lepr^db/db mice = assay: Acute treatment: blood glucose in Lepr^db/db mice; type: in vivo, mouse
Method: After overnight fasting, 8-10-week-old Lepr^db/db mice were intraperitoneally injected with physiological saline ([…]) containing 0.2% DMSO, or Compound #43 (0.0054, 0.054, 0.54, or 5.4 mg Compound #43 (the compound stock was diluted in sterile physiological saline) per kilogram of body weight. Following the injection of saline or compound, mice were returned to their cages with free access to water but not chow for 1, 2, 3, 5 and 8 hr. At each time point after injection, a small drop of blood was collected from the tail of each mouse for glucose assay.
Additional 6-week old Lepr^db/db mice under non-fasting conditions were intraperitoneally injected with physiological saline ([…]) containing 0.2% DMSO, or a single dose of Compound #43 (5.4 mg compound/kg body weight). After injection, animals were returned back to their cages with free access to water and chow. After 24 hr, a small drop of blood from the mouse tail was collected for glucose assay.
After treatment with physiological saline or compounds or after the injection of a bolus of glucose, a small drop of blood from each mouse was collected by snipping the mouse tail tip. Blood glucose levels were determined using a Glucometer with a maximum capability for glucose measurement of 600 mg/dL.

Row | Molecule | pAkt (Threonine 308) protein level in liver (Pdk1/Akt/Foxo1 [1]) | pFoxo1 (Serine 256) protein level in liver (Pdk1/Akt/Foxo1 [1]) | pPdk1 protein level in liver (Pdk1/Akt/Foxo1 [1]) | total Akt levels in liver (Pdk1/Akt/Foxo1 [1]) | pFoxo1 levels (Pdk1/Akt/Foxo1 [2]) | total Foxo1 protein levels (Pdk1/Akt/Foxo1 [2]) | phosphorylation of Pdk1, Akt and Foxo1 (Pdk1/Akt/Foxo1 [2]; 300 ppb, 60 minutes) | pFoxo1 protein levels (Pdk1/Akt/Foxo1 [2]; 300 ppb, 90 minutes) | pPdk1, pAkt, Akt and Foxo1 protein levels (Pdk1/Akt/Foxo1 [2]; 300 ppb, 90 minutes) | toxic effect on cell viability (H4IIE cells) | decrease of blood glucose levels (Lepr^db/db mice; 5.4 mg/kg single ip, 24 hr, 6-week-old mice, ad-libitum feeding (FIG. 7)) | duration of effectiveness in lowering glucose output (Lepr^db/db mice; 5.4 mg/kg single ip, feeding conditions) | effect on blood glucose levels vs saline (Lepr^db/db mice; single ip 0.0054, 0.054, 0.54, 5.4 mg/kg, fasting, 1-8 hr (FIG. 6)) | duration of activity (Lepr^db/db mice; single ip injection, fasting) | onset of action post-treatment (Lepr^db/db mice; single ip injection, fasting) [h] | time of peak activity in reducing blood glucose levels (Lepr^db/db mice; single ip injection, fasting conditions) [h] | phosphorylation of Pdk1, Akt and Foxo1 (Pdk1/Akt/Foxo1 [2]; 10 nM insulin, 60 and 90 minutes)
1 | C[Se]C[C@H]1O[C@@H](n2cnc3c(N)ncnc32)C(OC(C)=O)C1OC(C)=O (stereo partly shown) [Compound #43, Adenosine, 5′-Se-methyl-5′-selino-, 2′,3′-diacetate] | significantly elevated | significantly elevated | significantly elevated | no significant change | significant increase in pFoxo1 levels | slight but significant decrease | significantly induced the phosphorylation of Pdk1, Akt and Foxo1 | significant increase in pFoxo1 protein levels | not significantly altered | No toxic effect | about 20% | at least 24 hr | significant decrease of blood glucose levels | at least 8 hours | ≤ 1 | 2 to 5 | –
2 | insulin: insulin purchased from Sigma, positive control | – | – | – | – | increased pFoxo1 | slightly decreased total Foxo1 protein levels | – | – | – | – | – | – | – | – | – | – | enhanced the phosphorylation of Pdk1, Akt and Foxo1

— US11613552B2, “Pharmaceutical agents, compositions, and methods relating thereto” (Alltech, Inc., priority 2017, dated 2023)
